Experimental data published in patent US20250205276A1, “COMPOSITIONS AND METHODS OF TREATMENT OF DISEASE USING COMBINATION OF A NITRODILATOR AND A NITROGEN OXIDE COMPOUND” (LOMA LINDA UNIVERSITY, priority 2022, published 2025).
Read-outs that look alike come from different tables or passages of the source. Values belong to the molecule of their own block, whether it stands above or below them.

What was measured:
[1] = tested on: isolated sheep mesenteric arteries; test: Relaxation of endothelium-denuded sheep mesenteric arteries contracted with 5-HT; type: cell-based; conditions: for enabling of inhibition of vasodilation by CPTIO: SOD1 1000 U/ml, converts HNO into NO
Method: Isolated sheep mesenteric arteries were denuded of endothelium and contracted with 10 μM 5-HT (n=5). FIG. 5A presents examples of relaxation traces (one animal, six arterial strips) of NTG in the absence and presence of an sGC inhibitor (ODQ) (10 μM) or superoxide dismutase (SOD1) (1000 U/ml, converts HNO into NO), or the extracellular NO scavenger CPTIO (200 μM), or SOD1 and CPTIO together. All traces were normalized for comparison of extent of relaxation.
FIG. 5B is a graphical representation of the amplification of the area in the red circle in ‘A’. FIG. 5C is a graphical representation of the effects of SOD1, CPTIO, SOD1+CPTIO, and ODQ on relaxation in response to Nitroglycerin. FIG. 5D is a graphical representation of the effects of SOD1, CPTIO, and SOD1+CPTIO on relaxation in response to nitrosoglutathione (GSNO). SOD1, via putative conversion of HNO to NO, enables the inhibitory effects of CPTIO on relaxation caused by NTG and GSNO.
As discussed above, there are reasons to doubt whether NO itself is the mediator of sGC activation in the NANOS model. Rather, an equivalent of NO may be released by activation of the NANOS. […] The NO equivalent has HNO-like characteristics. […] Isolated sheep mesenteric arteries were denuded of endothelium and contracted with 10 μM 5-HT (n=5). FIG. 5A presents examples of relaxation traces (one animal, six arterial strips) of NTG in the absence and presence of an sGC inhibitor (ODQ) (10 μM) or superoxide dismutase (SOD1) (1000 U/ml, converts HNO into NO, or the extracellular NO scavenger CPTIO (200 μM), or SOD1 and CPTIO together. All traces were normalized for comparison of extent of relaxation. FIG. 5B is a graphical representation of the amplification of the area in the red circle in ‘A’. FIG. 5C is a graphical representation of the effects of SOD1, CPTIO, SOD1+CPTIO, and ODQ on relaxation in response to Nitroglycerin (NTG). FIG. 5D is a graphical representation of the effects of SOD1, CPTIO, and SOD1+CPTIO on relaxation in response to nitrosoglutathione (GSNO). SOD1, via putative conversion of HNO to NO, enables the inhibitory effects of CPTIO on relaxation caused by NTG and GSNO.

[2] = tested on: mesenteric vasculature of rats; test: Mesenteric vasodilatory response to nitrodilators after chronic pretreatment of rats; type: in vivo; conditions: for effect of pretreatment on mesenteric vasodilatory response to nitrodilators: pretreatment for four days
Method: (§1) Likewise, NTG has been thought to activate sGC by releasing the NO moiety from its nitrate group via the action of enzymes such as aldehyde dehydrogenase-2. However, this conversion produces nitrite rather than NO, especially at therapeutic NTG concentrations (<1 μM).

[3] = not told
[4] = cited from earlier work; for membrane permeability in words: Hogg et al
intact rats = test: Femoral vasodilation in intact rats treated with L-NAME; type: in vivo; conditions: for femoral vasodilation in response to the SNO: rats treated with L-NAME
intact sheep = test: Femoral vasodilation in intact sheep treated with L-NAME; type: in vivo; conditions: for femoral vasodilation in response to the SNO: sheep treated with L-NAME
sheep carotid artery = test: Mobilization of N15-NOx from sheep carotid artery by intraluminal GSNO (GC-MS); conditions: 2 h, vs control
Method: FIG. 4A is an illustration of the protocol. A sheep carotid artery (length 8 cm) was incubated with 10 μM N^15-nitrite in DMEM under 10.5% O2 for 6 h to load the vessel with N^15-NOx (NO metabolites). FIG. 4B is an illustration of the prepared vessels. After extensive washes, the arteries were well sealed and incubated for 2 h with 3 ml 100 μM oxyhemoglobin in HEPES buffer on the extraluminal side and 5 μM GSNO or control (0.7 ml HEPES buffer containing 0.1 mM DTPA) on the luminal side. FIG. 4C is a graphical representation of the response of the arteries exposed to GSNO. The N^15-NOx levels were lower (p=0.0206) in the homogenate of arteries exposed to GSNO. FIG. 4D is a graphical representation of the response of the arteries exposed to intraluminal GSNO. The N^15-NOx in extraluminal buffer was higher (p=0.0400) in the arteries exposed to intraluminal GSNO. N^15-NOx was measured by GC-MS. The results are consistent with intraluminal GSNO stimulating an efflux of NOx from the vascular smooth muscle as manifested by a decrease in intracellular NOx and an increase in extracellular NOx.
DNICs function as an intracellular NO store. NO can be stored as DNICs in ferritin, a cytosolic protein that stores and releases iron in controlled fashion. […] N^15-NOx was measured by GC-MS. […]

[5] = tested on: isolated sheep femoral arteries; test: Use-dependent loss of vasodilatory response to GSNO in isolated arteries, potentiation and reversal; type: cell-based
Method: To increase the store experimentally, isolated sheep femoral arteries were pre-exposed to 1 μM nitrite, a concentration two-to-three orders of magnitude below which nitrite itself causes vasodilation.

[6] = Ability to release NO / stability
isolated arteries = test: Vasodilation of isolated arteries (potency, sustainability); type: cell-based; conditions: read-out: EC50 (vasodilatory sensitivity)
Method: as §1

newborn lambs = conditions: low micromolar intravenous nitrite
coronary arteries = tested on: coronary arteries
From the text: SNOs, DNICs, heme-NO, nitroprusside, NTG, and other nitrodilators, dilate vessels via activation of soluble guanylyl cyclase (sGC) in vascular smooth muscle cells. These nitrodilators have potent NO-mimetic vasoactivities despite not releasing requisite amounts of free NO. These nitrodilators activate sGC via a preformed NANOS found within the vascular smooth muscle cell. Other examples of the nitrodilators include, but are not limited to, isosorbide dinitrate, isosorbide mononitrate, and nitrosyl complexes with metals or metalloproteins with metals other than iron.

sGC-cGMP pathway = test: Potentiation of nitrodilator vasodilation by sGC-cGMP pathway agents in vitro; type: cell-based
From the text: In certain embodiments, the combined application of a nitrodilator and a nitrogen oxide compound is affected by a perturbation in the sGC-cGMP pathway. Vasodilation mediated by the nitrodilator and/or nitrogen oxide compound can be further facilitated by agents that enhance the sGC-cGMP pathway. Such agents include sGC stimulators and activators, cGMP-phosphodiesterase inhibitors, and others. The sGC stimulators directly activate reduced-heme-containing sGC that generates cGMP to cause vasodilation. The sGC activators activate sGC when the heme is oxidized or the heme moiety is missing. A sGC stimulator can be riociguat or vericiguat. The sGC activator can be runcaciguat, cinaciguat, ataciguat, or kynurenine. The cGMP-phosphodiesterase inhibitors, such as sildenafil, vardenafil, and tadalafil, stabilize cGMP via preventing its degradation by phosphodiesterase-5. […] Certain embodiments include methods of treating a vascular condition or a respiratory condition in a human subject by administering a therapeutically effective amount of a nitrogen oxide compound and a cGMP-phosphodiesterase inhibitor. […] The potentiation effects of riociguat and sildenafil on vasodilation by nitrodilators including GSNO have been confirmed in vitro.

Molecule: CC1(C)N([O])C(c2ccc(C(=O)O)cc2)=[N+]([O-])C1(C)C [CPTIO]
effect on NTG- or GSNO-mediated relaxation ([1]; CPTIO 200 μM): does not affect

Molecule: [Cl][Cu] [CuCl]
enabling of inhibition of vasodilation by CPTIO [1]: enable the inhibitory effects of CPTIO

Molecule: COC(=O)[C@H](N)CCCNC(=N)N[N+](=O)[O-] [D-NAME, D-NG-Nitro arginine methyl ester]
effect of chronic pretreatment on mesenteric vasodilation by GSNO, glut-BDNIC and NTG [2]: potentiated
effect of pretreatment on mesenteric vasodilatory response to nitrodilators [2]: potentiated

Membrane permeability [3]: −
Molecule: N[C@H](CSN=O)C(=O)O [D-cysNO]
membrane permeability in words [4]: largely membrane-impermeable
femoral vasodilation in response to the SNO (intact rats): greatly diminished or even absent
femoral vasodilation in response to the SNO (intact sheep): greatly diminished or even absent

Membrane permeability [3]: −
Molecule: N[C@@H](CCC(=O)N[C@@H](CSN=O)C(=O)NCC(=O)O)C(=O)O [GSNO, S-nitroso-glutathione]
N15-NOx levels in homogenate of arteries (sheep carotid artery; 5 μM GSNO luminal side, p=0.0206): lower
N15-NOx in extraluminal buffer (sheep carotid artery; 5 μM intraluminal GSNO, p=0.0400): higher
membrane permeability in words [4]: largely membrane-impermeable
membrane permeability, fold less than L-cysNO ([4]; relative to L-cysNO): 200 fold
femoral vasodilation in response to the SNO (intact rats): greatly diminished or even absent
loss of initial vasodilatory response to GSNO ([5]; isolated vessels, after repeated exposures to GSNO): ~50%
femoral vasodilation in response to the SNO (intact sheep): greatly diminished or even absent

Membrane permeability [3]: −
Molecule: C=CC1=C(C)c2cc3[n-]c(cc4[n-]c(cc5nc(cc1n2)C(C)=C5C=C)c(C)c4CCC(=O)[O-])c(CCC(=O)[O-])c3C.N#[O+].[Fe].[H+].[H+] [Heme-NO, nitrosyl-heme]

Molecule: COC(=O)[C@@H](N)CCCNC(=N)N[N+](=O)[O-] [L-NAME]
effect of chronic pretreatment on mesenteric vasodilation by GSNO, glut-BDNIC and NTG [2]: potentiated
effect of pretreatment on mesenteric vasodilatory response to nitrodilators [2]: potentiated

Molecule: CNC(=N)NCCC[C@H](N)C(=O)O [L-NMMA]
effect of pretreatment on mesenteric vasodilatory response to nitrodilators [2]: not observed

NO moiety released ([6]; over one hour, presence of metal chelator in PBS): < 10%
stability, fold less stable than GSNO ([6]; relative to GSNO): 10 fold
Membrane permeability [3]: +
Molecule: N[C@@H](CSN=O)C(=O)O [L-cysNO, S-nitrosocysteine]
membrane permeability in words [4]: can be taken up into cells via the L-type amino acid transporter (LAT)
femoral vasodilation in response to the SNO (intact rats): greatly diminished or even absent
femoral vasodilation in response to the SNO (intact sheep): greatly diminished or even absent

Molecule: O=[N+]([O-])OCC(CO[N+](=O)[O-])O[N+](=O)[O-] [NTG, nitroglycerin]
Membrane permeability [3]: +
EC50 (isolated arteries): < 100 nM

Molecule: CC1(C)CC(O)CC(C)(C)N1[O] [TEMPOL]
enabling of inhibition of vasodilation by CPTIO [1]: enable the inhibitory effects of CPTIO

Molecule: O=NO [nitrite]
effect on GSNO-mediated vasodilation (newborn lambs): potentiate
effect on vasodilatory responses to subsequent SNO infusions in femoral arteries (intact rats; rats pre-treated with L-NAME, intravenous sub-vasodilatory nitrite): potentiated
effect on vasodilatory responses to GSNO ([5]; arteries pre-exposed to 1 μM nitrite): potentiate
attenuation of vasodilatory response to GSNO after repeated GSNO exposure ([5]; subsequent incubation with 1 μM nitrite for 30 min): reversed
effect on NTG tolerance of coronary arteries (coronary arteries; in vitro): reverting NTG tolerance
effect on NTG tolerance of coronary arteries (coronary arteries; in vivo): reverting NTG tolerance
effect on vasodilatory responses to subsequent SNO infusions in femoral arteries (intact sheep; sheep pre-treated with L-NAME, intravenous sub-vasodilatory nitrite): potentiated

Molecule: COC(=O)N(C)c1c(N)nc(-c2nn(Cc3ccccc3F)c3ncccc23)nc1N [riociguat]
effect on vasodilation by nitrodilators including GSNO (sGC-cGMP pathway): potentiation

Molecule: CCCc1nn(C)c2c(=O)[nH]c(-c3cc(S(=O)(=O)N4CCN(C)CC4)ccc3OCC)nc12 [sildenafil]
effect on vasodilation by nitrodilators including GSNO (sGC-cGMP pathway): potentiation

Molecule: SOD1: superoxide dismutase, converts HNO into NO
enabling of inhibition of vasodilation by CPTIO [1]: enables inhibition of vasodilation by CPTIO
